Among the data in patent publication US4443436A, “C-20-Modified macrolide derivatives of the macrolide antibiotics tylosin, desmycosin, macrocin, and lactenocin” (Eli Lilly and Company, priority 1982, dated 1984) are MIC and ED50 values, retold here.

Converted amounts (≈) assume the structure as drawn. Where two headings read alike, the source gives them in different places.

Test [1] has as its system Staphylococcus aureus X1.1. In words: MIC, standard agar-dilution assay, Staphylococcus aureus X1.1. It is filed as cell-based.
Test [2] concerns Staphylococcus aureus V41. In words: MIC, standard agar-dilution assay, Staphylococcus aureus V41. It is filed as cell-based.
In test [3] the test system is Staphylococcus aureus X400. In words: MIC, standard agar-dilution assay, Staphylococcus aureus X400. Type of test: cell-based.
Test [4] has as its system Staphylococcus aureus S13E. Briefly: MIC, standard agar-dilution assay, Staphylococcus aureus S13E. Type of test: cell-based.
The test system of test [5] is Staphylococcus epidermidis EPI1. Briefly: MIC, standard agar-dilution assay, Staphylococcus epidermidis EPI1. It is filed as cell-based.
In test [6] the test system is Staphylococcus epidermidis EPI2. In words: MIC, standard agar-dilution assay, Staphylococcus epidermidis EPI2. Type of test: cell-based.
Test [7] concerns Streptococcus pyogenes C203. In words: MIC, standard agar-dilution assay, Streptococcus pyogenes C203. Type of test: cell-based.
The subject of test [8] is Streptococcus pneumoniae Park I. In words: microbe, parasite or virus in culture. Type of test: cell-based.
Test [9] concerns Streptococcus Group D X66. In words: MIC, standard agar-dilution assay, Streptococcus Group D X66. Type of test: cell-based.
Another test deals with Streptococcus Group 9960. Briefly: MIC, standard agar-dilution assay, Streptococcus Group 9960. Type of test: cell-based. The note with it: Streptococcus Group 9960, agar dilution. (In agar dilution, organisms are placed on agar that contains the substance at set levels.)
The subject of test [10] is Haemophilus influenzae Holt. Briefly: MIC, standard agar-dilution assay, Haemophilus influenzae Holt. It is filed as cell-based.
Test [11] concerns Haemophilus influenzae R252. Briefly: MIC, standard agar-dilution assay, Haemophilus influenzae R252. Type of test: cell-based.
In another test the test system is Staphylococcus aureus. Briefly: MIC, broth-dilution microtiter test, Staphylococcus aureus. It is filed as cell-based. An excerpt:
(§1) The MIC's in Table X were obtained using conventional broth-dilution microtiter tests.

In another test the test system is Streptococcus bovis 80. In words: MIC, broth-dilution microtiter test, Streptococcus bovis 80. It is filed as cell-based. The note with it: Streptococcus bovis 80, broth-dilution microtiter.
Source text: as §1

Test [12] has as its system Pasteurella multocida 17E. In words: MIC, broth-dilution microtiter test, Pasteurella multocida 17E. Type of test: cell-based.
Source text: as §1

Test [13] concerns Pasteurella multocida 60A. In words: MIC, broth-dilution microtiter test, Pasteurella multocida 60A. It is filed as cell-based.
Source text: as §1

For test [14], the system named is Pasteurella hemolytica 22C. In words: MIC, broth-dilution microtiter test, Pasteurella hemolytica 22C. Type of test: cell-based.
Source text: as §1

A further test deals with Mycoplasma gallisepticum. Briefly: MIC, broth-dilution microtiter test, Mycoplasma gallisepticum. The note with it: Mycoplasma gallisepticum, broth-dilution microtiter. It is filed as cell-based.
Source text: as §1

In the next test the test system is Mycoplasma synoviae. In words: MIC, broth-dilution microtiter test, Mycoplasma synoviae. It is filed as cell-based.
Source text: as §1

The test system of another test is Mycoplasma hyorhinis. Briefly: MIC, broth-dilution microtiter test, Mycoplasma hyorhinis. It is filed as cell-based.
Source text: as §1

Another test has as its system Mycoplasma hyopneumoniae. In words: MIC, broth-dilution microtiter test, Mycoplasma hyopneumoniae. Type of test: cell-based.
Source text: as §1

Test [15] has as its system Streptococcus pyogenes C203. In words: In vivo protection of mice experimentally infected with S. pyogenes C203. Conditions: Streptococcus pyogenes, mice, doses given 1 and 4 hours post-infection. The procedure:
The C-20 modified derivatives of this invention have shown in vivo antimicrobial activity against experimentally-induced infections in laboratory animals. When two doses of test compound were administered to mice experimentally infected with S. pyogenes C203, the activity observed was measured as an ED50 value [effective dose in mg/kg to protect 50% of the test animals: see Warren Wick, et al., J. Bacteriol. 81, 233-235 (1961)].

The mark [16] stands for this setting: Staphylococcus epidermidis, EPI1.
The mark [17] stands for this setting: Streptococcus equinus, read-out: MIC.
[18] abbreviates: Mycoplasmoides gallisepticum, read-out: MIC.
Setting [19] is: C203, sc, subcutaneous, read-out: ED50, Subcutaneous.
[20] abbreviates: C203, oral, read-out: ED50, Oral.

Usually ED50 stands for the midpoint of the dose-response relation.

Turning to `CCC1OC(=O)CC(O)C(C)C(OC2OC(C)C(O)C(N(C)C)C2O)C(CCOC(C(F)(F)F)C(F)(F)F)CC(C)C(=O)C=CC(C)=CC1COC1OC(C)C(O)C(OC)C1OC` (stereo not shown) [Compound 32, 20-DH-20-O-[2,2,2-trifluoro-1-(trifluoromethyl)ethyl]desmycosin], the MIC in test [1] (Staphylococcus aureus, X1.1) was 0.5 µg/mL (≈ 0.541 µM); in [2] (Staphylococcus aureus, V41) it was 0.5 µg/mL (≈ 0.541 µM); in [3] (Staphylococcus aureus, X400) it was 0.5 µg/mL (≈ 0.541 µM); in [4] (Staphylococcus aureus, S13E) it was 0.5 µg/mL (≈ 0.541 µM); in test [5] (setting [16]), 0.5 µg/mL (≈ 0.541 µM); in [6] (Staphylococcus epidermidis, EPI2), 0.25 µg/mL (≈ 0.271 µM). For the same compound, the MIC in test [7] (Streptococcus pyogenes, C203) was 0.5 µg/mL (≈ 0.541 µM); in test [8] (Streptococcus pneumoniae), 4 µg/mL (≈ 4.33 µM); in [9] (Streptococcus Group D X66, agar dilution, read-out: MIC), 32 µg/mL (≈ 34.6 µM); in the test with Streptococcus Group 9960 (GROUP9960, read-out: MIC), 32 µg/mL (≈ 34.6 µM); in test [10] (Haemophilus influenzae Holt, ampicillin-sensitive strain, read-out: MIC), 64 µg/mL (≈ 69.3 µM); in test [11] (Haemophilus influenzae, R252), 128 µg/mL (≈ 139 µM). For the same compound, the MIC in the test with Staphylococcus aureus was 0.78 µg/mL (≈ 0.844 µM); in the test with Streptococcus bovis 80 (setting [17]), 12.5 µg/mL (≈ 13.5 µM); in test [12] (Pasteurella multocida, 17E), 50 µg/mL (≈ 54.1 µM); in test [13] (Pasteurella multocida, 60A), 50 µg/mL (≈ 54.1 µM); in test [14] (Pasteurella, 22C) it was 50 µg/mL (≈ 54.1 µM); with Mycoplasma gallisepticum (setting [18]) it was 0.19 µg/mL (≈ 0.206 µM). For the same compound, the MIC in the test with Mycoplasma synoviae (Mycoplasmopsis synoviae) was 1.56 µg/mL (≈ 1.69 µM); in the test with Mycoplasma hyorhinis (Mycoplasma hyorhinis, broth-dilution microtiter, read-out: MIC), greater than 50 µg/mL; in the test on Mycoplasma hyopneumoniae (Mesomycoplasma hyopneumoniae, Mycoplasma hyopneumoniae, broth-dilution microtiter, read-out: MIC), greater than 25 µg/mL. Also, the ED50 in test [15] (setting [19]) was greater than 10 mg/kg; in test [15] (setting [20]) it was 25 mg/kg.
For the compound `CCC1OC(=O)CC(O)C(C)C(OC2OC(C)C(O)C(N(C)C)C2O)C(CCOc2ccc(C=O)cc2)CC(C)C(=O)C=CC(C)=CC1COC1OC(C)C(O)C(OC)C1OC` (stereo not shown) [Compound 36, 20-DH-20-O-(p-formylphenyl)desmycosin], the MIC was found to be 0.25 µg/mL (≈ 0.285 µM) in test [1] (Staphylococcus aureus, X1.1); 0.25 µg/mL (≈ 0.285 µM) in test [2] (Staphylococcus aureus, V41); 0.25 µg/mL (≈ 0.285 µM) in test [3] (Staphylococcus aureus, X400); 0.25 µg/mL (≈ 0.285 µM) in test [4] (Staphylococcus aureus, S13E); 0.25 µg/mL (≈ 0.285 µM) in test [5] (setting [16]); 0.12 µg/mL (≈ 0.137 µM) in [6] (Staphylococcus epidermidis EPI2, agar dilution, read-out: MIC). Besides, the MIC in test [7] (Streptococcus pyogenes, C203) came out at 1 µg/mL (≈ 1.14 µM); in [8] (Streptococcus pneumoniae) it was 1 µg/mL (≈ 1.14 µM); in test [9], 4 µg/mL (≈ 4.56 µM); with Streptococcus Group 9960 (GROUP9960, read-out: MIC), 8 µg/mL (≈ 9.11 µM); in test [10] (Haemophilus influenzae), 16 µg/mL (≈ 18.2 µM); in [11] (Haemophilus influenzae, R252), 16 µg/mL (≈ 18.2 µM). Also, the MIC in the test with Staphylococcus aureus worked out at 12.5 µg/mL (≈ 14.2 µM); in the test on Streptococcus bovis 80 (setting [17]), 12.5 µg/mL (≈ 14.2 µM); in test [12] (Pasteurella multocida 17E, bovine isolate, broth-dilution microtiter, read-out: MIC), 25 µg/mL (≈ 28.5 µM); in [13] (Pasteurella multocida, 60A), 12.5 µg/mL (≈ 14.2 µM); in test [14] (Pasteurella, 22C), 50 µg/mL (≈ 56.9 µM); with Mycoplasma gallisepticum (setting [18]) it was 25 µg/mL (≈ 28.5 µM). Moreover, the MIC was greater than 50 µg/mL with Mycoplasma synoviae (Mycoplasmopsis synoviae, Mycoplasma synoviae, broth-dilution microtiter, read-out: MIC); 50 µg/mL (≈ 56.9 µM) in the test on Mycoplasma hyorhinis (Mycoplasma); 12.5 µg/mL (≈ 14.2 µM) against Mycoplasma hyopneumoniae (Mesomycoplasma hyopneumoniae). Also, the values for the ED50 in [15] (setting [19]) and in [15] (setting [20]) were 2.2 mg/kg and 19 mg/kg, respectively.
`CCC1OC(=O)CC(O)C(C)C(OC2OC(C)C(OC3CC(C)(O)C(O)C(C)O3)C(N(C)C)C2O)C(CCOc2ccccc2)CC(C)C(=O)C=CC(C)=CC1COC1OC(C)C(O)C(O)C1OC` (stereo not shown) [Compound 53, 20-DH-20-O-Phenylmacrocin]: the MIC stood at 2 µg/mL (≈ 2.04 µM) in test [1] (Staphylococcus aureus X1.1, agar dilution); 2 µg/mL (≈ 2.04 µM) in test [2] (Staphylococcus aureus V41, penicillin-resistant strain, agar dilution); 4 µg/mL (≈ 4.08 µM) in test [3] (Staphylococcus aureus X400, methicillin-resistant strain, agar dilution); 2 µg/mL (≈ 2.04 µM) in test [4] (Staphylococcus aureus S13E, agar dilution); 2 µg/mL (≈ 2.04 µM) in test [5] (Staphylococcus epidermidis EPI1, agar dilution); 2 µg/mL (≈ 2.04 µM) in [6] (Staphylococcus epidermidis EPI2, agar dilution). For the same compound, the MIC was 4 µg/mL (≈ 4.08 µM) in test [7] (Streptococcus pyogenes C203, agar dilution); 32 µg/mL (≈ 32.6 µM) in [8] (Streptococcus pneumoniae Park I, agar dilution); “-- (Not active at 128 mcg/ml, the highest level tested)” in test [9] (Streptococcus Group D X66, agar dilution); “-- (Not active at 128 mcg/ml, the highest level tested)” in the test on Streptococcus Group 9960; “-- (Not active at 128 mcg/ml, the highest level tested)” in test [10] (Haemophilus influenzae Holt, ampicillin-sensitive strain, agar dilution); “-- (Not active at 128 mcg/ml, the highest level tested)” in [11] (Haemophilus influenzae R252, ampicillin-resistant strain, agar dilution). Moreover, the MIC is 0.39 µg/mL (≈ 0.398 µM) against Staphylococcus aureus (broth-dilution microtiter); 6.25 µg/mL (≈ 6.38 µM) in the test with Streptococcus bovis 80; 25 µg/mL (≈ 25.5 µM) in test [12] (Pasteurella multocida 17E, bovine isolate, broth-dilution microtiter); 12.5 µg/mL (≈ 12.8 µM) in test [13] (Pasteurella multocida 60A, avian isolate, broth-dilution microtiter); 25 µg/mL (≈ 25.5 µM) in test [14] (Pasteurella hemolytica 22C, broth-dilution microtiter); less than 0.05 µg/mL in the test on Mycoplasma gallisepticum. Besides, the MIC with Mycoplasma synoviae (Mycoplasma synoviae, broth-dilution microtiter) stood at 3.12 µg/mL (≈ 3.18 µM); with Mycoplasma hyorhinis (Mycoplasma hyorhinis, broth-dilution microtiter), 50 µg/mL (≈ 51 µM); with Mycoplasma hyopneumoniae (Mycoplasma hyopneumoniae, broth-dilution microtiter), 0.78 µg/mL (≈ 0.796 µM).
